Reference: patent US12516022B2, “Derivatives of aryl hydrocarbon receptor agonists” (AZORA THERAPEUTICS, INC., priority 2021, dated 2026)

How the values were obtained:
[1] = Stability of indirubin prodrugs in simulated fluids (FaSSIF, FaSSGF), 24 h at 37° C., UPLC-MS; assay type: physicochemical
Description: (§1) 10.41 g fasted state simulated intestinal fluid (FaSSIF) buffer concentrate was dissolved in 240.3 g deionized water and 560 mg FaSSIF powder added. The mixture was stirred until complete dissolution observed. The test compound (approx. 1-3 mg) was placed in 5.00 mL of FaSSIF solution. Samples of the solution with the test compound were taken after 24 hours in at 37° C. (oven-controlled temperature).
as §1, with “36.78” for “10.41”, “gastric” for “intestinal”, “(FaSSGF)” for “(FaSSIF)”, “961.9” for “240.3”, “60” for “560”, “FaSSGF” for “FaSSIF”
UPLC-MS analysis of the samples taken at 24 hours was carried out on a Waters Acquity UPLC system consisting of an Acquity I-Class Sample Manager-FL, Acquity I-Class Binary Solvent Manager and an Acquity UPLC Column Manager. UV detection was afforded using an Acquity UPLC PDA detector (scanning from 210 to 400 nm), whilst mass detection was achieved using an Acquity QDa detector (mass scanning from 100-1250 Da; positive and negative modes simultaneously), and ELS detection was achieved using an Acquity UPLC ELS Detector. A Waters Acquity UPLC BEH C18 column (2.1 Å˜50 mm, […]) was used to separate the analytes. Samples were prepared by dissolution (with or without sonication) into 1 mL of 50% (v/v) MeCN in water. The resulting solutions were then filtered through a […] syringe filter before submitting for analysis. All of the solvents, including formic acid and 36% ammonia solution, were purchased as the HPLC grade.

AhR = target: T1, AhR (Rattus norvegicus, UniProt P41738); test: AhR/arnt-luciferase reporter assay in rat H4IIE cells
T1 sequence (P41738 10-853): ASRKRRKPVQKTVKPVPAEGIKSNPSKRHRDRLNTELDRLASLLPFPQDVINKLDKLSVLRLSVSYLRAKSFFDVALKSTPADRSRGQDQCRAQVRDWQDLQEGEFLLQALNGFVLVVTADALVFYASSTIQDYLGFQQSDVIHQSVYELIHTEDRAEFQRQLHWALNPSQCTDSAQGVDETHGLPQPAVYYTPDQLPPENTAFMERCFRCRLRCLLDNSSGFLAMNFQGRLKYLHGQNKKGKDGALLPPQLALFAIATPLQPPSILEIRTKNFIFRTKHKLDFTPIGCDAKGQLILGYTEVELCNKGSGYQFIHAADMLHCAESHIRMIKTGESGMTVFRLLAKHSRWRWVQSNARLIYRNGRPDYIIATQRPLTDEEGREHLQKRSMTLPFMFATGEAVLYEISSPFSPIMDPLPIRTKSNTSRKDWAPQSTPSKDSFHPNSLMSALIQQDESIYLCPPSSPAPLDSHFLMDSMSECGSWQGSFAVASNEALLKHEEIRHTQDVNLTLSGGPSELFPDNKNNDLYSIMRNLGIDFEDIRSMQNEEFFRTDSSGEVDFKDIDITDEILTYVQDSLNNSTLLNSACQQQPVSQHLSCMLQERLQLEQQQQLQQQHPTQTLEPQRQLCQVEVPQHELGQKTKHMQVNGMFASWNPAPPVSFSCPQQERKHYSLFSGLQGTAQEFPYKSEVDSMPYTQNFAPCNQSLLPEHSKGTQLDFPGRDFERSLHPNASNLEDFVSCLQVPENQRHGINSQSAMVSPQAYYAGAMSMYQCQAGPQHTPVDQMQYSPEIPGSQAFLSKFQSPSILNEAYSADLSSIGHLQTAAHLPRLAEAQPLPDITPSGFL
Description: TCDD and MeBio were included in the study as positive controls. These were added into cell culture media containing charcoal-stripped fetal bovine serum to produce a 2× stock and then added to the reporter cells. The reporter cells were human Huh7 cells or Rat H4IIE cell lines with the native AhR and an AhR/arnt-Luciferase reporter vector. The final concentration of DM50 was 0.1%. Cells were incubated for 22 hours at 37° C. prior to addition of the luciferase detection reagent and measurement of activity in relative luminescence units.

Structure (SMILES) | Fraction (percent) of indirubin ([1]; FaSSGF 37° C. 24 h) [%] | Fraction (percent) of starting material (SM) ([1]; FaSSGF 37° C. 24 h) [%] | Fraction (percent) of indirubin ([1]; FaSSIF 37° C. 24 h) [%] | Fraction (percent) of starting material (SM) ([1]; FaSSIF 37° C. 24 h) [%] | EC50 (AhR) [nM]
O=C1/C(=C2/C(=O)N(C(=O)N3CCOCC3)c3ccccc32)Nc2ccccc21 | 0 | 100 | 0 | 100 | 
CN1CCN(CN2C(=O)/C(=C3\Nc4ccccc4C3=O)c3ccccc32)CC1 [drawing 222] |  |  | 19 | 50 | 
O=C1/C(=C2/C(=O)N(C(=O)NC3CCOCC3)c3ccccc32)Nc2ccccc21 [drawing 236] | 13 | 68 | 10 | 57 | 
C=CCOC(=O)N1C(=O)/C(=C2\Nc3ccccc3C2=O)c2ccccc21 | 0 | 100 | 2 | 88 | 
CN(C)CCNC(=O)N1C(=O)/C(=C2\Nc3ccccc3C2=O)c2ccccc21 | 0 | 100 | 0 | 100 | 
O=C1Nc2ccccc2/C1=C1/Nc2ccccc2C1=O [indirubin, reference compound] |  |  |  |  | ~654
Cl.NCCCNC(=O)N1C(=O)/C(=C2\Nc3ccccc3C2=O)c2ccccc21 | 7 | 86 | 0 | 100 | 
CN(C)CCCCNC(=O)N1C(=O)/C(=C2\Nc3ccccc3C2=O)c2ccccc21 | 0 | 100 | 0 | 100 | 
CCN(CC)CN1C(=O)/C(=C2\Nc3ccccc3C2=O)c2ccccc21 [drawing 221] | 100 | 0 | 100 | 0 | 
CN1CCN(CCNC(=O)N2C(=O)/C(=C3\Nc4ccccc4C3=O)c3ccccc32)CC1 | 2 | 93 | 0 | 100 | 
O=C1Nc2ccccc2/C1=C1/Nc2ccccc2/C1=N\O | 0 | 100 | 0 | 100 | 
CN1CCC(NC(=O)N2C(=O)/C(=C3\Nc4ccccc4C3=O)c3ccccc32)CC1=O (centres unmarked) | 0 | 100 | 0 | 100 | 
O=C1/C(=C2/C(=O)N(C(=O)NCCNS(=O)(=O)c3ccc([N+](=O)[O-])cc3)c3ccccc32)Nc2ccccc21 | 0 | 100 | 0 | 100 | 
CN(C)CCCNC(=O)N1C(=O)/C(=C2\Nc3ccccc3C2=O)c2ccccc21 | 0 | 100 | 1 | 94 | 
O=C1/C(=C2/C(=O)N(COc3ccccc3)c3ccccc32)Nc2ccccc21 | 0 | 100 | 0 | 100 | 
CCCCCCCCCCC(=O)N1C(=O)/C(=C2\Nc3ccccc3C2=O)c2ccccc21 | 0 | 100 | 0 | 100 | 
